Measurements as given in US6399583B1, “Hybrid anthracyclines from genetically engineered streptomyces galilaeus strains, process for production and uses thereof” (Galilaeus Oy, priority 1998, dated 2002).

Columns and labels:
[1] = tested on: Lewis lung carcinoma (LL/2); assay: Cytotoxicity assay, ATP detection, LL/2; format: cell-based, mouse; details: Mus musculus; LL/2 cells in vitro; read-out: ED50 LL/2
Experimental: (§1) The cytotoxicity tests were performed in 96-well microtiter plates (sterile white plates with clear bottom, Corning Costar Corporation, Cambridge, Mass., USA). The anthracyclines were pipetted into the plates in 10 μl of ethanol, pure ethanol was used for control plates. Daunorubicin and aclarubicin were used as positive controls. When the ethanol had evaporated, the cells were seeded into the plates in 100 μl of appropriate medium. The number of cells seeded per well was 2500 with MES-SA, 3000 with MES-SA/D×5, 3000 with LL/2, 2000 with B16-F0 and B16-F1, 2000 with KLN-205 and 8000 with MLTC-1. The ATP content of the cells was measured after incubating the cells for three days at 37° C. with 5% CO2.
(§2) The growth medium was removed by turning the plates over, and 200 μl of ATP extraction reagent, Somalyze, were added to the wells. The plates were then incubated for 30 minutes at room temperature. The ATP measurement was performed with Luminoskan luminometer (Labsystems Oy, Helsinki, Finland) at 22° C. 20 μl of ATP monitoring reagent containing luciferin and luciferase was dispensed, and an integral measurement of 10 s with 2 s lag time was performed for each well. All reagents used were supplied by Bio-Orbit Oy, Turku, Finland.
(§3) The direct luminometer output (in relative light units, RLUS) was used to calculate the cytotoxic effect. This light signal is directly proportional to the amount of […] in a wide range (determined with Bio-Orbit ATP standard, data not shown). On the other hand, the amount of ATP is directly proportional to the amount of living cells (Kangas et al., 1984). The results are expressed as percentages of the control value of untreated cells. An IC50 value (the drug concentration resulting to an ATP signal of 50% of the untreated control signal) was graphically estimated from the % of control vs. drug concentration plot.
(§4) H075-4a was also tested with several mouse cell lines in vitro (all were purchased from ATCC, Rockville, Md., USA): Lewis lung carcinoma (LL/2) (CRL-1642), B16-F0 melanoma (CRL-6322), B16-F1 melanoma (CRL-6323), KLN-205 lung squamous cell carcinoma (CRL-1453) and MLTC-1 leydig cell tumor (CRL-2065) using daunomycin, aclarubicin and H075-1a (MA 144U1) as references.
(§5) All cells grew as monolayers and were cultured at 37° C. with 5% CO2 according to ATCC standard instructions for each cell line: LL/2 in Dulbecco's modified Eagle's medium with 4.5 g/l glucose and 10% FCS, B16-F0 and B16-F1 in MEM (Eagle) in Earle's BSS with non-essential amino acids and 10% FCS, KLN-205 in MEM (Eagle) in Earle's BSS with non-essential amino acids and 10% FCS, MLTC-1 in RPMI 1640 with 25 mM HEPES and 10% FBS. All media were purchased from Gibco BRL, the serum was Gibco BRL Foetal Bovine Serum. […]

[2] = tested on: L1210 mouse lymphocytic leukemia cells; assay: Flow cytometry (mode of action), cell cycle phases; format: cell-based; details: for G1 (%) / G2 (%) / S + M (%) / Cells (1000/ml): L1210 cells, 24 h incubation; for G1 (%): percentage of cells in phase G1; for G2 (%): percentage of cells in phase G2; for S + M (%): percentage of cells in phases S + M; for Cells (1000/ml): starting cell number 46000 cells/ml
Experimental: L1210 mouse lymphocytic leukemia cells growing in suspension culture were maintained at exponential growth in Dulbecco's modified Eagle's medium with 4.5 g/l glucose and 10% FBS, at 37° C. with 5% CO2. The experiments were started by adding the ethanol-dissolved anthracyclines, in amounts yielding to the appropriate final concentrations, to 25 cm^2 cell culture flasks. After the ethanol had evaporated, 5 ml of an approximately 50 000 cells per ml suspension was added to the flasks. Flow cytometric analysis was made of the original cell suspension and after one, two and three days incubation with or without the drugs.
Cells were prepared for flow cytometric DNA analysis according to the method of Vindelov et al. (1985). The analysis was performed with an Epics XL flow cytometer (Coulter Corporation, Miami, Fla.). Samples were illuminated with a […] air-cooled argon ion laser (488 nm) and the fluorescence of propidium iodide was detected through 620-nm band pass filter. The number of cells in each sample was separately counted by adding an internal calibrator (50 μl of a solution containing 1×10^6 Fluoresbrite beads/ml) to 50 μl of cell suspension.
Based on the flow cytometric studies, the cell cycle phases for the cells studied could be detected. Phase G1 is the stage for RNA and protein synthesis, but not for replication. Transition from phase G1 to phase S means the initiation of replication, and the phase will last until all of the DNA has been replicated. The period from phase S up to mitosis (M) is phase G2.

[3] = tested on: MES-SA human uterine sarcoma cells; assay: Cytotoxicity assay, luminescence ATP detection, MES-SA; format: cell-based; details: Homo sapiens, 72 h, three days incubation, ATP content, highest concentration 10^-5 M, read-out: ED50 (nM) MES-SA
Experimental: (§6) The cytotoxicities of the new anthracyclines were tested in vitro with two cell lines: human uterine sarcomas MES-SA (CRL-1976; American Type Culture Collection (ATCC), Rockville, Md., USA) and MES-SA/D×5 (CRL-1977; ATCC, Rockville, Md., USA). MES-SA/D×5 has been developed by growing MES-SA cells in increasing concentrations of doxorubicin (Harker and Sikic, 1985).
(§7) Monolayer cultures were grown in McCoy's 5A medium with L-glutamine (Gibco BRL) supplemented with 10% FBS (Foetal Bovine Serum, Gibco BRL). No antibiotics were added. As the resistance is stable for at least 20 passages, the MES-SA/D×5 cells were grown without anthracycline selection (Harker and Sikic, 1985). Cells were maintained at 37° C. with 5% CO2 and subcultured every 3-5 days.
as §1, §2, §3

B16-F0 melanoma = assay: Cytotoxicity assay, ATP detection, B16-F0; format: cell-based, mouse; details: Mus musculus, B16F0; B16-F0 cells in vitro; read-out: ED50 B16-F0
Experimental: as §1, §2, §3, §4, §5

MLTC-1 leydig cell tumor = assay: Cytotoxicity assay, ATP detection, MLTC-1; format: cell-based, mouse; details: Mus musculus, Leydig; MLTC-1 cells in vitro; read-out: ED50 MLTC-1
Experimental: as §1, §2, §3, §4, §5

B16-F1 melanoma = assay: Cytotoxicity assay, ATP detection, B16-F1; format: cell-based, mouse; details: Mus musculus; B16-F1 cells in vitro; read-out: ED50 B16-F1
Experimental: as §1, §2, §3, §4, §5

[4] = tested on: KLN-205 lung squamous cell carcinoma; assay: Cytotoxicity assay, ATP detection, KLN-205; format: cell-based, mouse; details: Mus musculus; KLN-205 cells in vitro; read-out: ED50 KLN-205
Experimental: as §1, §2, §3, §4, §5

SK-N-MC = assay: Cytotoxicity assay, ATP detection, SK-N-MC; format: cell-based; details: SK-N-MC cells in vitro; read-out: ED50 SK-N-MC
[5] = tested on: MES-SA/D×5 uterine sarcoma cells (doxorubicin-resistant, MDR); assay: Cytotoxicity assay, luminescence ATP detection, MES-SA/D×5; format: cell-based, human; details: Homo sapiens, 72 h; MES-SA/D×5 cells, three days incubation, ATP content; highest concentration 10^-5 M; read-out: ED50 (nM) MES-SA/D × 5
Experimental: as §6, §7, §1, §2, §3

[6] = tested on: MES-SA/D×5 uterine sarcoma cells (doxorubicin-resistant, MDR); details: relative to MES-SA; Harker and Sikic, 1985; cited from earlier work

| SMILES | EC50 [1] | G1 (%) ([2]; concentration 1 × 10^−8M) | G2 (%) ([2]; concentration 1 × 10^−8M) | S + M (%) ([2]; concentration 1 × 10^−8M) | Cells (1000/ml) ([2]; concentration 1 × 10^−8M) | G1 (%) ([2]; concentration 3.3 × 10^−8M) | G2 (%) ([2]; concentration 3.3 × 10^−8M) | S + M (%) ([2]; concentration 3.3 × 10^−8M) | Cells (1000/ml) ([2]; concentration 3.3 × 10^−8M) | cell cycle phase in which cells are arrested ([2]; flow cytometric DNA analysis) | EC50 [3] | EC50 (B16-F0 melanoma) | EC50 (MLTC-1 leydig cell tumor) | EC50 (B16-F1 melanoma) | EC50 [4] | EC50 (SK-N-MC) | EC50 [5] | resistance of MES-SA/D×5 variant to doxorubicin [6] |
| --- | --- | --- | --- | --- | --- | --- | --- | --- | --- | --- | --- | --- | --- | --- | --- | --- | --- | --- |
| CC[C@@]1(O)C[C@H](O[C@H]2C[C@H](N(C)C)[C@H](O[C@H]3C[C@H](O)[C@H](O[C@H]4CCC(=O)[C@H](C)O4)[C@H](C)O3)[C@H](C)O2)c2c(cc3c(c2O)C(=O)c2c(O)cccc2C3=O)[C@H]1C(=O)OC [Aclarubicin] | 5 nM | 43% | 14% | 43% | 101 1000/ml | 47% | 29% | 24% | 78 1000/ml | phase G1 | 2 nM | 3 nM | 70 nM | 4 nM | 12 nM | 9 nM | 12 nM |  |
| COc1cccc2c1C(=O)c1c(O)c3c(c(O)c1C2=O)C[C@@](O)(C(=O)CO)C[C@@H]3O[C@H]1C[C@H](N)[C@H](O)[C@H](C)O1 [doxorubicin] |  |  |  |  |  |  |  |  |  |  |  |  |  |  |  |  |  | 100 fold |
